Reference: US12441757B2, “Platform for screening NAD+ binding proteins in a cellular context” (OREGON HEALTH & SCIENCE UNIVERSITY, priority 2020, dated 2025)
Entries after “also recorded” stand apart in the source; their conditions may differ.

Experiments:
PARP-10 = biological target: T1, PARP-10 (Homo sapiens, UniProt Q53GL7); test: Competition labeling of PARP-10 by 2-ad-BAD; type: binding; details: for block of 2-ad-BAD labeling of PARP-10 by nucleotides: 150 μM nucleotide, 0.3 μM 2-ad-BAD; for dose-dependent block of 2-ad-BAD labeling of PARP-10: competitor dose series
T1 construct: Full length His6-PARP-1 and His6-SUMO-PARP-10 proteins we expressed and purified; His6 (N); SUMO (N); made in house
T1 sequence (Q53GL7 1-1025): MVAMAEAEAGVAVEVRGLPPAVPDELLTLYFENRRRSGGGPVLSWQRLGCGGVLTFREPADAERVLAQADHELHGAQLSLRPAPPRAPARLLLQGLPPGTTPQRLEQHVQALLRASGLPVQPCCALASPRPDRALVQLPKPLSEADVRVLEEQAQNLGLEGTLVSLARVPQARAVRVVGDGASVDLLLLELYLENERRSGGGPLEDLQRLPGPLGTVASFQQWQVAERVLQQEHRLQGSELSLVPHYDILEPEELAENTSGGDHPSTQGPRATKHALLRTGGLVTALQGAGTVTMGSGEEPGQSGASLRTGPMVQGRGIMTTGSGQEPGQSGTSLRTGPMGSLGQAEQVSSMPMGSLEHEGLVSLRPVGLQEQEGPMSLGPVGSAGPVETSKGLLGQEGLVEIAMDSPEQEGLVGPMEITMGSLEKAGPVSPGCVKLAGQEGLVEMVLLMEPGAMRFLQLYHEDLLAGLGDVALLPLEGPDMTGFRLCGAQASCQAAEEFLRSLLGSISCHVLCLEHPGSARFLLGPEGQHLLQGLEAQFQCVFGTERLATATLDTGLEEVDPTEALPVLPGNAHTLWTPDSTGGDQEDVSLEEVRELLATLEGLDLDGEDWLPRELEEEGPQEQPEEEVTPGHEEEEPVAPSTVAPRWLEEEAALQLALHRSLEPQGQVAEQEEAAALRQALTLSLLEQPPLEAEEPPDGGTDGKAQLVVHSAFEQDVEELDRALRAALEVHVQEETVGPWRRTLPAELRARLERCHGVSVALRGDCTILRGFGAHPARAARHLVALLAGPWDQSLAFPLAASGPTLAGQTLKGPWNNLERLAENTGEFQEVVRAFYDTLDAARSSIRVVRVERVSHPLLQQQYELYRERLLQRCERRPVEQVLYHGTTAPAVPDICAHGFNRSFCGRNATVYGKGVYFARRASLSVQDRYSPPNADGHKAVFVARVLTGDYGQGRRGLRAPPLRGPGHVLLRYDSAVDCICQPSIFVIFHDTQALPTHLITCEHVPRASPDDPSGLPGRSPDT
Text: (§1) FIG. 8. Densitometry analyses of FIG. 3A panels (A,B) comparing the inhibitory effect of nucleotides and (B) panels (C,D) comparing inhibitory effect of PARP inhibitors on PARP-1 and PARP-10 labelling by 2-ad-BAD. TAMRA in-gel fluorescence was normalized to Coomassie staining, except for PARP-1 NAD^+ treated samples where relative to control TAMRA signal is reported due to auto-PARylation induced molecular weight shift and therefore not detectable Coomassie signal at PARP-1 molecular weight of ˜110 kDa. Data are mean±SEM of 3 independent experiments.
(§2) Treatments. Recombinant PARP-1 (250 nM), PARP-10 (250 nM) or AK1 (500 nM; Novus Biologicals) were diluted in 100 mM NaCl, 50 mM HEPES [pH 7.4], 4 mM MgCl2, 0.2 mM TCEP. PARP-1 reactions also contained 10 μg/mL of activated calf thymus DNA (Sigma-Aldrich D4522), unless otherwise noted. In experiments reported in FIG. 2, the samples were treated with 0.1 μM 2-ad-BAD or ad-olaparib for 10 min. In competition experiments reported in FIG. 3 and Figure S3, samples were first treated with 150 μM of indicated nucleotides for 10 minute and then with 0.3 μM 2-ad-BAD for additional 10 min. All treatments occurred at RT. Samples were then kept in the dark or irradiated for 5 min in the RPR-100 Photochemical Reactor (Rayonet) equipped with 350 nm lamps at 4° C.
(§3) Click Chemistry. 25 μL of each sample was mixed with 5 μL of fatty acid free BSA and SDS to give a final Click reaction concentration of 1 mg/mL and 1%, respectively. Click reactions were started by adding 15 μL of PBS based 3× click reaction mix (final 1× concentrations shown): 100 μM Tris[(1-benzyl-1H-1,2,3triazol-4-yl)methyl]amine (TBTA, Click Chemistry Tools), 1 mM CuSO4, 40 μM tetramethylrhodamine (TAMRA)-azide (Click Chemistry Tools), 1 mM Tris(2-carboxyethyl)phosphine hydrochloride (TCEP, Thermo Fisher) and 5% tert-Butyl alcohol to each sample, and let to proceed for 1 h at RT while gently shaking. Reactions were stopped by adding 4× Laemmli sample buffer and boiling at 95° C. for 5 min.
(§4) In gel fluorescence and staining. Samples were loaded to 10 or 12% SDS-polyacrylamide gels and run until the dye front left the gel. In-gel fluorescence was detected with ChemiDoc XRS+ (Biorad) using Rhodamine filter and then the gels were stained with Coomassie blue or Silver using standard protocols.

PARP-1 [1] = biological target: T2, PARP-1 (Homo sapiens, UniProt P09874); test: Competition labeling of PARP-1 by 2-ad-BAD; type: binding; details: for block of 2-ad-BAD labeling of PARP-1 by nucleotides: 150 μM nucleotide, 0.3 μM 2-ad-BAD; for dose-dependent block of 2-ad-BAD labeling of PARP-1: competitor dose series
T2 construct: Full length His6-PARP-1 and His6-SUMO-PARP-10 proteins we expressed and purified; His6 (N); made in house
Text: as §1, §2, §3, §4

Adenylate kinase 1 (AK1) = biological target: T3, Adenylate kinase 1 (AK1) (Homo sapiens, UniProt P00568); test: Labeling of recombinant AK1 by 2-ad-BAD and nucleotide competition; type: binding; details: 150 μM competitor, 0.3 μM 2-ad-BAD
T3 construct: purchased Novus Biologicals NBP1-50855
T3 sequence (P00568 1-194): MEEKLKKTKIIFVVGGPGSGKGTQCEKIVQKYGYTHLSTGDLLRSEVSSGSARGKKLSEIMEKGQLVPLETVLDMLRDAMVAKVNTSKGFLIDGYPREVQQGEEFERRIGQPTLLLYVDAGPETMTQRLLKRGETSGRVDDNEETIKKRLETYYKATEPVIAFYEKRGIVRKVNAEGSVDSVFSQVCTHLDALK
Description: (§5) FIG. 10. Validation of Adenylate kinase 1 (AK1) as a putative NAD^+/NADH binding protein. […] Recombinant AK1 (500 nM) in 100 mM NaCl, 50 mM HEPES [pH 7.4], 4 mM MgCl2, 0.2 mM TCEP was incubated with 150 μM of indicated competitor molecule for 10 min, followed by 10 min treatment with 0.3 μM 2-ad-BAD. Samples were then subjected to UV light for 5 min, conjugated to TAMRA using Click chemistry, separated by SDS-PAGE and in-gel fluorescence was recorded. […] (FIG. 10B) A differential scanning fluorimetry assay is supportive of NADH as novel AK1 ligand. Recombinant AK1 (0.1 mg/mL) in 100 mM NaCl, 50 mM HEPES, pH 7.4, 4 mM MgCl2, 7.5× SYPRO Orange was tested for thermal stability in the absence or presence of indicated nucleotides at 1 mM. Ordinate reports on the difference of melt peak temperature prompted by indicated treatments. Data are mean±SEM of 3 independent experiments.
as §2, §3, §4

squid AK = details: cited from earlier work
AK1 [2] = biological target: T4, AK1 (Homo sapiens, UniProt P00568); test: Differential scanning fluorimetry (DSF) of AK1; type: binding; details: nucleotide 1 mM, AK1 0.1 mg/mL
T4 construct: purchased Novus Biologicals NBP1-50855
T4 sequence (P00568 1-194): T3 sequence (P00568 1-194)
Description: as §5
Differential scanning fluorimetry was used to detect the AK1-ligand interaction. […] AK1 thermal stability upon treatment with ddH2O, ATP, ADP, NAD^+or NADH, 1 mM each, was measured on Biorad RT-PCR thermocycler using Cal Orange 560 filter. […] The melting temperature (Tm) for each sample was determined by calculating first derivative of the fluorescence (d(RFU)/dT) and shift in thermal stability (ΔTm) was calculated by subtracting vehicle—treated sample Tm from ligand-treated sample Tm.

AK1 [3] = details: cited from earlier work
PARP-1 [4] = biological target: T2, PARP-1; test: In vitro photocrosslinking and click chemistry labeling of PARP-1 (in-gel fluorescence); type: binding; details: 0.1 μM probe, UV 350 nm 5 min, presence or absence of damaged DNA
Description: as §2
Click Chemistry. 25 μL of each sample was mixed with 5 μL of fatty acid free BSA and SDS to give a final Click reaction concentration of 1 mg/mL and 1%, respectively. […]
In gel fluorescence and staining. […] In-gel fluorescence was detected with ChemiDoc XRS+ (Biorad) using Rhodamine filter and then the gels were stained with Coomassie blue or Silver using standard protocols.

T2 sequence (P09874 whole entry): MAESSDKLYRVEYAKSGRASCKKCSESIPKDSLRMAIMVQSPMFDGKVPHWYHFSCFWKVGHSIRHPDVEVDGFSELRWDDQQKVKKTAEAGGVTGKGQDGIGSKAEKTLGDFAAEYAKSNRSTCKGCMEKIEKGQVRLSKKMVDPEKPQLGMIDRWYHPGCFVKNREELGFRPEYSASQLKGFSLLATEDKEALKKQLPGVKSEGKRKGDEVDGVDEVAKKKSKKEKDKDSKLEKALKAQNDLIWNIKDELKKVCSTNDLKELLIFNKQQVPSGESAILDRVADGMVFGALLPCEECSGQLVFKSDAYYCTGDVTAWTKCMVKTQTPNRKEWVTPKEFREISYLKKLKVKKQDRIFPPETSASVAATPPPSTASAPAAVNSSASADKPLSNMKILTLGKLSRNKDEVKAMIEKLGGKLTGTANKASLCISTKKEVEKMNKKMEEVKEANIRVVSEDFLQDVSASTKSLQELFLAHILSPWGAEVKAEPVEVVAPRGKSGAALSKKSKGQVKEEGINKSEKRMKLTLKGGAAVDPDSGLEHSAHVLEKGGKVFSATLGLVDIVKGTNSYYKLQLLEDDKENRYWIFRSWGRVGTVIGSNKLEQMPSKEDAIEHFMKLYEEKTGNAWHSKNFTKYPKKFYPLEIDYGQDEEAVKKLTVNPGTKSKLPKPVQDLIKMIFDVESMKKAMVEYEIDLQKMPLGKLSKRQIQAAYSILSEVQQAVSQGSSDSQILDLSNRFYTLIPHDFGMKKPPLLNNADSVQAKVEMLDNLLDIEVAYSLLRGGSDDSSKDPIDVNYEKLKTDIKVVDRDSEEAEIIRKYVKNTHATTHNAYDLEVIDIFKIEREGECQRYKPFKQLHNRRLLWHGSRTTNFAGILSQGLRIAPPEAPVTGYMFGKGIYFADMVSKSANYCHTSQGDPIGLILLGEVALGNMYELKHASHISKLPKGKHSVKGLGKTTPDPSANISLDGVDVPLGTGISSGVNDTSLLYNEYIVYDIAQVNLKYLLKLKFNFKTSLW

Compound	block of 2-ad-BAD labeling of PARP-10 by nucleotides (PARP-10)	block of 2-ad-BAD labeling of PARP-1 by nucleotides (PARP-1 [1])	competition of 2-ad-BAD labeling of recombinant AK1 (Adenylate kinase 1 (AK1))	also measured
Nc1ncnc2c1ncn2[C@@H]1O[C@H](COP(=O)(O)OP(=O)(O)O)[C@@H](O)[C@H]1O [ADP]	did not block	did not block		
Nc1ncnc2c1ncn2[C@@H]1O[C@H](COP(=O)(O)OP(=O)(O)OC[C@H]2OC(O)[C@H](O)[C@@H]2O)[C@@H](O)[C@H]1O (stereo partly shown) [ADPr, ADP-ribose]	did not block	did not block	to a lesser extent	
Nc1ncnc2c1ncn2[C@@H]1O[C@H](COP(=O)(O)O)[C@@H](O)[C@H]1O [AMP]			effectively competed	
Nc1ncnc2c1ncn2[C@@H]1O[C@H](COP(=O)(O)OP(=O)(O)OP(=O)(O)O)[C@@H](O)[C@H]1O [ATP, adenosine triphosphate]	did not block	did not block	effectively competed	
CC#Cc1ccc2c(=O)[nH]c(CSc3ccc(C(=O)O)cc3)nc2c1C [ITK6]				dose-dependent block of 2-ad-BAD labeling of PARP-10 (PARP-10): blocked the labeling of PARP-10; dose-dependent block of 2-ad-BAD labeling of PARP-1 (PARP-1 [1]): did not block the labeling of PARP-1
NC(=O)C1=CN([C@@H]2O[C@H](COP(=O)(O)OP(=O)(O)OC[C@H]3O[C@@H](n4cnc5c(N)ncnc54)[C@H](O)[C@@H]3O)[C@@H](O)[C@H]2O)C=CC1 [NADH]	reduced	reduced	effectively competed	mode of inhibition of squid AK (squid AK): non-competitive inhibitor; shift in AK1 thermal stabilization (ΔTm) compared to vehicle control (AK1 [2]): caused a shift in AK1 thermal stabilization; also recorded: showed a thermal shift similar to ATP and ADP; inhibition of AK1 activity (AK1 [3]): competitively inhibited
NC(=O)c1ccc[n+]([C@@H]2O[C@H](COP(=O)([O-])OP(=O)(O)OC[C@H]3O[C@@H](n4cnc5c(N)ncnc54)[C@H](O)[C@@H]3O)[C@@H](O)[C@H]2O)c1 [NAD^+, Nicotinamide adenine dinucleotide]	reduced	reduced	to a lesser extent	shift in AK1 thermal stabilization (ΔTm) compared to vehicle control (AK1 [2]): caused a shift in AK1 thermal stabilization; inhibition of AK1 activity (AK1 [3]): competitively inhibited
NC(=O)c1cc(F)cc2c1C(=O)N(C1CCN(C3CCC(F)(F)CC3)CC1)C2 [NMS-P118, 2-[1-(4,4-Difluorocyclohexyl)Piperidin-4-Yl]-6-Fluoro-3-Oxo-2,3-Dihydro-1H-Isoindole-4-Carboxamide]				dose-dependent block of 2-ad-BAD labeling of PARP-10 (PARP-10): did not block the labeling of PARP-10; dose-dependent block of 2-ad-BAD labeling of PARP-1 (PARP-1 [1]): blocked the labeling of PARP-1
C#CCCC1(CCOC(=O)N2CCN(C(=O)c3cc(Cc4n[nH]c(=O)c5ccccc45)ccc3F)CC2)N=N1 [ad-olaparib, 2-(3-(but-3-yn-1-yl)-3H-diazirin-3-yl)ethyl 4-(2-fluoro-5-((4-oxo-3,4-dihydrophthalazin-1-yl)methyl)benzoyl) piperazine-1-carboxylate]				UV-dependent labeling of PARP-1, dependence on damaged DNA (PARP-1 [4]): labels PARP-1 independent of PARP-1 binding to damaged DNA
